Results published in patent US12527773B2, “Flavi-block: a pan-flavivirus inhibitor” (Baden-Württemberg Stiftung GmbH, priority 2020, dated 2026).
Several values for one entry are separate records, joined by “and”; a condition that tells them apart may be missing. Equal values may be shown once. Entries after “also recorded” stand apart in the source; their conditions may differ. Read-outs that look alike come from different tables or passages of the source.

Legend:
ZIKV = test: RT-qPCR analysis of virus genomes, ZIKV; type: cell-based; conditions: Zika virus
Procedure: Vero cells were infected with ZIKV at an MOI of 1 for 2 h (post infection), after which virus was removed, and fresh maintenance medium containing 2% FCS together with the indicated concentration of C10 added. For co-treat condition, Vero cells were infected with ZIKV at an MOI of 1 in the presence of C10 for 2 h, followed by removal of the virus/C10 inoculums, and addition of fresh 2% fetal calf serum maintenance medium. […] Results represent the mean ±SD for duplicate wells from a single assay (cf. Table 2 for pooled data).
Viral RNA was extracted using Isolate II RNA extraction kit (Bioline), and the absolute number of RNA copies determined by Taqman One Step RT-qPCR (Applied Biosystems) by extrapolation from a standard curve generated from in vitro—transcribed virus RNA.
It was decided to test the ability of C10 to inhibit the flaviviruses DENV1-4, KUNV and ZIKV, in addition to the paramyxovirus RSV, as a control.

[1] = Solubilization in dosing vehicle recipes; type: physicochemical
Procedure: The compound was assessed for solubilization in 5 different vehicle recipes: • 1. Physiological saline (0.9% NaCl solution in water) • 2. Kolliphor HS—physiological saline (20%:80%) • 3. DMSO-PEG400—physiological saline (20%:50%:30%) • 4. PEG400—5% dextrose in water (75%:25%) • 5. DMSO-Cremophor EL—5% Mannitol (10%:10%:80%)
To prepare the formulation using the DMSO-PEG400 —physiological saline (20%:50%:30%) recipe, the compound was first supplemented with the calculated volume of DMSO, vortexed for 1 minute and sonicated for 2 minutes at 40° C. Next, PEG400 and physiological saline were added. The final mixture was vortexed and sonicated for 2 minutes at 40° C. The working formulations batch was prepared for 1 h prior to the in vivo study.

[2] = Pharmacokinetic study in Balb/c mice, intravenous administration; type: in vivo; design: Kel (Lambda_z): unit not given here; conditions: for Plasma concentration, Group A-D: single animals; for half-life: iv
Procedure: Study design, animal selection, handling and treatment were all in accordance with the study protocols and institutional animal care and use guidelines. Male Balb/c mice (9-10 weeks old, body weight 22.3 to 38.1 g and average body weight across all groups 31.4 g, SD=3.20 g) were used in this study. The animals were randomly assigned to the treatment groups before the pharmacokinetic study; all animals were fasted for 4 h before dosing. Six time points for PO (15, 30, 60, 120, 240 and 360 min) and IV (5, 15, 30, 60, 120 and 240 min) routes were used in this pharmacokinetic study. Each of the PO and IV time point treatment groups included 4 animals. There was also control group of 2 animals. Dosing was done according to the treatment schedules outlined in Table 3. Mice were injected IV with 2,2,2-tribromoethanol at the dose of 150 mg/kg prior to taking blood. Blood collection was performed from the orbital sinus in microtainers containing K2EDTA. Animals were sacrificed by cervical dislocation after blood samples collection. All samples were immediately prepared, flash-frozen and stored at −70° C. until subsequent bioanalysis.
Samples Processing Plasma samples ([…]) were mixed with […] of IS solution. After mixing by pipetting and centrifuging for 4 min at 6,000 rpm, […] of each supernatant was injected into LC-MS/MS system. Solution of compound IS-02-03 (200 ng/ml in acetonitrile-methanol mixture, 1:1, v/v) was used as internal standard (IS) for quantification of C10 in plasma samples. Samples Analysis The concentrations of C10 were determined using high performance liquid chromatography/tandem mass spectrometry (HPLC-MS/MS). Shimadzu H PLC system comprised of 2 isocratic pumps LC-10Advp, an autosampler SIL-HTc, a sub-controller FCV-14AH and a degasser DGU-14A. Mass spectrometric analysis was performed using an API 3000 (triple-quadrupole) instrument from AB Sciex (Canada) with an electro-spray (ESI) interface. The data acquisition and system control was performed using Analyst 1.5.2 software from AB Sciex. HPLC-MS/MS Conditions
The pharmacokinetic data analysis was performed using non-compartmental, bolus injection or extravascular input analysis models in WinNonlin 5.2 (PharSight). Data below LLOQ were presented as missing to improve validity of T1/2 calculations. No outlier data points were removed from calculations. The bioavailability for the peroral route was calculated as: […]

[3] = male, Balb/c, mouse, plasma, IV 5 mg/kg

CCN1/C(=C\C=C\c2sc3cc(NC(C)=O)ccc3[n+]2CC)Sc2cc(NC(C)=O)ccc21.[I-] [C10, 6-acetamido-2-((1E,3E)-3-(6-acetamido-3-ethylbenzo[d]thiazol-2(3H)-ylidene)prop-1-en-1-yl)-3-ethylbenzo[d]thiazol-3-ium iodide]
EC50 (ZIKV; read-out: EC50 from RT-qPCR analysis, ZIKV, c.t.): 440 nM
EC50 (ZIKV; read-out: EC50 from RT-qPCR analysis, ZIKV, p.i.): 1130 ± 1100 nM
solubility ([1]; 5 vehicle recipes): very low solubility
concentration of full dissolution ([1]; only in DMSO-PEG400-physiological saline (20%:50%:30%)): 1000 µg/mL
Kel (Lambda_z) ([2]; IV 5 mg/kg): 0.00581
Vd (Vz_obs) ([2]; IV 5 mg/kg): 14.1 L/kg
Plasma concentration, Mean ([2]; IV 5 mg/kg, 5 min): 2690 ng(ml)
Plasma concentration, Group A-D ([2]; IV 5 mg/kg, 5 min, 5 mg/kg): 2780 ng(ml) and 2310 ng(ml) and 2606 ng(ml) and 3063 ng(ml)
Plasma concentration, Mean ([2]; IV 5 mg/kg, 15 min): 311 ng(ml)
Plasma concentration, Group A-D ([2]; IV 5 mg/kg, 15 min, 5 mg/kg): 185 ng(ml) and 316 ng(ml) and 521 ng(ml) and 221 ng(ml)
Plasma concentration, Mean ([2]; IV 5 mg/kg, 30 min): 154 ng(ml)
Plasma concentration, Group A-D ([2]; IV 5 mg/kg, 30 min, 5 mg/kg): 109 ng(ml) and 152 ng(ml) and 189 ng(ml) and 164 ng(ml)
Plasma concentration, Mean ([2]; IV 5 mg/kg, 60 min): 109 ng(ml)
Plasma concentration, Group A-D ([2]; IV 5 mg/kg, 60 min, 5 mg/kg): 93 ng(ml) and 160 ng(ml) and 89 ng(ml) and 92 ng(ml)
Plasma concentration, Mean ([2]; IV 5 mg/kg, 120 min): 60 ng(ml)
Plasma concentration, Group A-D ([2]; IV 5 mg/kg, 120 min, 5 mg/kg): 69 ng(ml) and 44 ng(ml) and 59 ng(ml) and 67 ng(ml)
Plasma concentration, Mean ([2]; IV 5 mg/kg, 240 min): 43 ng(ml)
Plasma concentration, Group A-D ([2]; IV 5 mg/kg, 240 min, 5 mg/kg): 47 ng(ml) and 43 ng(ml) (2×) and 40 ng(ml)
tolerability in mice ([2]; IV, 5 mg/kg): tolerated; also recorded: not toxic at high concentrations
Vd ([2]; male, Balb/c, mouse, plasma, 5 mg/kg, calculated, IV, read-out: volume of distribution): 14.1 L/kg
half-life ([2]; male, Balb/c, mouse, plasma, 5 mg/kg, IV 5 mg/kg, read-out: T1/2 (HL_Lambda_z)): 1.98 h
half-life ([2]; male, Balb/c, mouse, plasma, 5 mg/kg, mice, IV administration, read-out: half-life in plasma/serum (converted)): ~2 h
Cmax [2, 3]: 2.69 µg/mL
Tmax [2, 3]: 5 min
AUC(0-t) ([2]; male, Balb/c, mouse, plasma, IV 5 mg/kg, read-out: AUC0→t = 240 min (AUClast) (converted)): 892 ng·h/mL
AUC(0-inf) ([2]; male, Balb/c, mouse, plasma, IV 5 mg/kg, read-out: AUC0→∞ (AUCINF_obs) (converted)): 1020 ng·h/mL
clearance ([2]; male, Balb/c, mouse, plasma, IV 5 mg/kg, read-out: CL (Cl_obs)): 82.1 mL/min/kg
MRT inf ([2]; male, Balb/c, mouse, plasma, IV 5 mg/kg, read-out: MRT (MRTinf) (converted)): 1.36 h
MRT last ([2]; male, Balb/c, mouse, plasma, IV 5 mg/kg, read-out: MRT (MRTlast) (converted)): 0.59 h
